Patent US20220273683A1, “BORON-CONTAINING SMALL MOLECULES” (Bill & Melinda Gates Foundation, priority 2016, published 2022)
In brackets after ≈: the same amount, converted by molar mass.

How the values were obtained:
Type in all cases: cell-based
[1] = test system: Staphylococcus aureus, MRSA (ATCC 33591); experiment: Antibacterial MIC assay (microbroth dilution, CLSI); details: 35° C., 16-20 hours
Source text: (§1) All MIC testing of bacteria followed the Clinical and Laboratory Standards Institute (CLSI) guidelines for antimicrobial testing of aerobic bacteria (Methods for Dilution Antimicrobial Susceptibility Tests for Bacteria that Grow Aerobically; Approved Standard—Tenth Edition, M07-A10; Performance Standards for Antimicrobial Susceptibility Testing; Twenty-fifth Informational Supplement, M100-S25).
(§2) Briefly, the microbroth dilution MIC method was used to quantitatively measure the in vitro antibacterial activity of a compound against a given bacterial isolate. The following bacterial strains were evaluated: Staphylococcus aureus, MRSA (ATCC 33591) and Streptococcus pneumoniae (ATCC 49619). Bacteria were grown in cation-adjusted Mueller-Hinton broth, with additions as required per species growth requirements (e.g. 3% lysed horse blood for fastidious organisms such as S. pneumoniae). A direct colony suspension in saline was prepared from colonies on an overnight agar plate to achieve a turbidity equivalent to 0.5 McFarland standard, which was subsequently diluted into the assay plate to achieve 5×10^5 CFU/mL. Assays plates were prepared by 2-fold dilution of compound across the plate and included a positive growth control.

[2] = test system: Streptococcus pneumoniae (ATCC 49619); experiment: as above; details: 35° C., 16-20 hours; for MIC Streptococcus pneumoniae (ATCC 49619): 3% lysed horse blood
Source text: as §1, §2

[3] = test system: Wolbachia pipientis in C6/36 cell line; experiment: Anti-Wolbachia high-content assay; details: C6/36 (wAlbB) cells, 7 days at 26° C., 50% reduction of Wolbachia
Source text: C6/36 cells (ECACC #89051705, derived from Aedes albopictus larvae) were infected with Wolbachia pipientis derived from the supernatant of cultured A. albopictus Aa23 cells to create a stably Wolbachia-infected cell line C6/36 (wAlbB). This cell line was subpassaged 6-8 days prior to plating out at a density of 2000 viable cells per well in a 384-well CellCarrier plate suspended in Liebovitz media supplemented with 20% fetal bovine serum, 2% tryptose phosphate broth and 1% non-essential amino acids. Compounds were dissolved and diluted in DMSO, and compound solution was added to each well to provide a final DMSO concentration <1% and a total volume of 100 μL per well. Following 7 days of sterile incubation at 26° C., staining media containing SYTO 11 DNA dye was added to each well. After 15 minutes, all media was removed from each well and fresh media (no stain) was added. Imaging of each well was accomplished using a Perkin Elmer Operetta high-content imaging system. Five fields per well were imaged using a confocal 60× objective with the Fluorescein filter (excitation filter: 460-490 nm; emission filter: 500-550 nm). Images were analyzed using the Perkin Elmer Harmony software to score each intact cell on the basis of texture complexity of the cytoplasm. Full details can be found in: […]. Biomol. Screening, 2015, 20, […]. Compound sample wells were analyzed and normalized (along with the positive controls) against the vehicle (untreated) control to give a percentage reduction of Wolbachia-infected cells. Using the cell number analysis, compounds with a host cell number amounting to less than 50% of the vehicle control were classified as toxic and retested at a reduced compound concentration. Dose-response curves were generated with percentage reduction of Wolbachia-infected cells versus compound concentration, using 5-10 compound serial dilutions. Data were analyzed and compound EC50 is determined using a 4 parameter logistic nonlinear regression model.

SMILES | MIC Staphylococcus aureus, MRSA (ATCC 33591) [1] | MIC Streptococcus pneumoniae (ATCC 49619) [2] | EC50 [3] [µM] | MIC ([1]; Staphylococcus aureus) [µg/mL] | MIC ([2]; Streptococcus pneumoniae, ATCC49619, 3% lysed horse blood) [µg/mL]
C[C@@H]1CC[C@@]23CCC(=O)[C@H]2[C@]1(C)[C@H](OC(=O)COc1ccc2c(c1F)B(O)OC2)C[C@@]1(C)CCC(=O)O[C@H]1[C@@H]3C [Compound 1, (4aR,6R,7R,7aR,10aS,11R,11aS,14R)-4a,7,11,14-tetramethyl-2,8-dioxododecahydro-2H-7,10a-propanocyclopenta[6,7]cycloocta[1,2-b]pyran-6-yl2-((7-fluoro-1-hydroxy-1,3-dihydrobenzo[c][1,2]oxaborol-6-yl)oxy)acetate] | B (0.5-2 is B) | C (4-32 is C) | > 1 |  | 
C[C@@H]1CC[C@@]23CCC(=O)[C@H]2[C@]1(C)[C@H](OC(=O)COc1ccc2c(c1F)B(O)OC2)C[C@@](C)(CCC(N)=O)[C@@H](O)[C@@H]3C [Compound 2, (3aR,4R,5R,7R,8S,9R,9aS,12R)-7-(3-amino-3-oxopropyl)-8-hydroxy-4,7,9,12-tetramethyl-3-oxodecahydro-4,9a-propanocyclopenta[8]annulen-5-yl2-((7-fluoro-1-hydroxy-1,3-dihydrobenzo[c][1,2]oxaborol-6-yl)oxy)acetate] | C (4-32 is C) | C (4-32 is C) | > 1 |  | 
C[C@@H]1CC[C@@]23CCC(=O)[C@H]2[C@]1(C)[C@H](OC(=O)COc1ccc2c(c1F)B(O)OC2)C[C@@](C)(CCN1CCOCC1)[C@@H](O)[C@@H]3C [Compound 41, (3aR,4R,5R,7R,8S,9R,9aS,12R)-8-hydroxy-4,7,9,12-tetramethyl-7-(2-morpholinoethyl)-3-oxodecahydro-4,9a-propanocyclopenta[8]annulen-5-yl 2-((7-fluoro-1-hydroxy-1,3-dihydrobenzo[c][1,2]oxaborol-6-yl)oxy)acetate] |  |  |  | 4 to 32 (≈ 6.5 to 52 µM) | 4 to 32 (≈ 6.5 to 52 µM)
CCN(CC)CC[C@]1(C)C[C@@H](OC(=O)COc2ccc3c(c2F)B(O)OC3)[C@]2(C)[C@H](C)CC[C@]3(CCC(=O)[C@H]32)[C@@H](C)[C@@H]1O [Compound 42, (3aR,4R,5R,7R,8S,9R,9aS,12R)-7-(2-(diethylamino)ethyl)-8-hydroxy-4,7,9,12-tetramethyl-3-oxodecahydro-4,9a-propanocyclopenta[8]annulen-5-yl2-((7-fluoro-1-hydroxy-1,3-dihydrobenzo[c][1,2]oxaborol-6-yl)oxy)acetate] | C (4-32 is C) | D (≥64 is D) |  |  | 
C[C@@H]1CC[C@@]23CCC(=O)[C@H]2[C@]1(C)[C@H](OC(=O)COc1ccc2c(c1F)B(O)OC2)C[C@@](C)(CN)[C@@H](OS(C)(=O)=O)[C@@H]3C [Compound 50, (3aR,4R,5R,7S,8S,9R,9aS,12R)-7-(aminomethyl)-4,7,9,12-tetramethyl-8-((methylsulfonyl)oxy)-3-oxodecahydro-4,9a-propanocyclopenta[8]annulen-5-yl2-((7-fluoro-1-hydroxy-1,3-dihydrobenzo[c][1,2]oxaborol-6-yl)oxy)acetate] | C (4-32 is C) | C (4-32 is C) |  |  | 
Cc1nnc(/C=C/[C@]2(C)C[C@@H](OC(=O)COc3ccc4c(c3F)B(O)OC4)[C@]3(C)[C@H](C)CC[C@]4(CCC(=O)[C@H]43)[C@@H](C)[C@@H]2O)o1 [Compound 51, (3aR,4R,5R,7S,8S,9R,9aS,12R)-8-hydroxy-4,7,9,12-tetramethyl-7-((E)-2-(5-methyl-1,3,4-oxadiazol-2-yl)vinyl)-3-oxodecahydro-4,9a-propanocyclopenta[8]annulen-5-yl2-((7-fluoro-1-hydroxy-1,3-dihydrobenzo[c][1,2]oxaborol-6-yl)oxy)acetate] | B (0.5-2 is B) | B (0.5-2 is B) |  |  | 
Cc1noc(/C=C/[C@]2(C)C[C@@H](OC(=O)COc3ccc4c(c3F)B(O)OC4)[C@]3(C)[C@H](C)CC[C@]4(CCC(=O)[C@H]43)[C@@H](C)[C@@H]2O)n1 [Compound 52, (3aR,4R,5R,7S,8S,9R,9aS,12R)-8-hydroxy-4,7,9,12-tetramethyl-7-((E)-2-(3-methyl-1,2,4-oxadiazol-5-yl)vinyl)-3-oxodecahydro-4,9a-propanocyclopenta[8]annulen-5-yl2-((7-fluoro-1-hydroxy-1,3-dihydrobenzo[c][1,2]oxaborol-6-yl)oxy)acetate] | A (MIC of ≤0.25 is A) | A (MIC of ≤0.25 is A) |  |  | 

Results, then the molecule that gave them:

MIC Staphylococcus aureus, MRSA (ATCC 33591) [1] | MIC Streptococcus pneumoniae (ATCC 49619) [2] | EC50 [3] [µM] | MIC ([1]; Staphylococcus aureus) [µg/mL] | MIC ([2]; Streptococcus pneumoniae, ATCC49619, 3% lysed horse blood) [µg/mL] | SMILES
A (MIC of ≤0.25 is A) | C (4-32 is C) |  |  |  | C[C@@H]1CC[C@@]23CCC(=O)[C@H]2[C@]1(C)[C@H](OC(=O)COc1ccc2c(c1F)B(O)OC2)C[C@@](C)(C=NO)[C@@H](O)[C@@H]3C [Compound 43, (3aR,4R,5R,7S,8S,9R,9aS,12R)-8-hydroxy-7-((hydroxyimino)methyl)-4,7,9,12-tetramethyl-3-oxodecahydro-4,9a-propanocyclopenta[8]annulen-5-yl2-((7-fluoro-1-hydroxy-1,3-dihydrobenzo[c][1,2]oxaborol-6-yl)oxy)acetate]
A (MIC of ≤0.25 is A) | C (4-32 is C) |  |  |  | CON=C[C@]1(C)C[C@@H](OC(=O)COc2ccc3c(c2F)B(O)OC3)[C@]2(C)[C@H](C)CC[C@]3(CCC(=O)[C@H]32)[C@@H](C)[C@@H]1O [Compound 44, (3aR,4R,5R,7S,8S,9R,9aS,12R)-8-hydroxy-7-((methoxyimino)methyl)-4,7,9,12-tetramethyl-3-oxodecahydro-4,9a-propanocyclopenta[8]annulen-5-yl2-((7-fluoro-1-hydroxy-1,3-dihydrobenzo[c][1,2]oxaborol-6-yl)oxy)acetate]
B (0.5-2 is B) | C (4-32 is C) |  |  |  | CONC[C@]1(C)C[C@@H](OC(=O)COc2ccc3c(c2F)B(O)OC3)[C@]2(C)[C@H](C)CC[C@]3(CCC(=O)[C@H]32)[C@@H](C)[C@@H]1O [Compound 45, (3aR,4R,5R,7S,8S,9R,9aS,12R)-8-hydroxy-7-((methoxyamino)methyl)-4,7,9,12-tetramethyl-3-oxodecahydro-4,9a-propanocyclopenta[8]annulen-5-yl2-((7-fluoro-1-hydroxy-1,3-dihydrobenzo[c][1,2]oxaborol-6-yl)oxy)acetate]
B (0.5-2 is B) | C (4-32 is C) |  |  |  | CC(C)ON=C[C@]1(C)C[C@@H](OC(=O)COc2ccc3c(c2F)B(O)OC3)[C@]2(C)[C@H](C)CC[C@]3(CCC(=O)[C@H]32)[C@@H](C)[C@@H]1O [Compound 46, (3aR,4R,5R,7S,8S,9R,9aS,12R)-8-hydroxy-7-((isopropoxyimino)methyl)-4,7,9,12-tetramethyl-3-oxodecahydro-4,9a-propanocyclopenta[8]annulen-5-yl2-((7-fluoro-1-hydroxy-1,3-dihydrobenzo[c][1,2]oxaborol-6-yl)oxy)acetate]
B (0.5-2 is B) | C (4-32 is C) |  |  |  | C[C@@H]1CC[C@@]23CCC(=O)[C@H]2[C@]1(C)[C@H](OC(=O)COc1ccc2c(c1F)B(O)OC2)C[C@@](C)(CN)[C@@H](O)[C@@H]3C [Compound 47, (3aR,4R,5R,7S,8S,9R,9aS,12R)-7-(aminomethyl)-8-hydroxy-4,7,9,12-tetramethyl-3-oxodecahydro-4,9a-propanocyclopenta[8]annulen-5-yl2-((7-fluoro-1-hydroxy-1,3-dihydrobenzo[c][1,2]oxaborol-6-yl)oxy)acetate]
B (0.5-2 is B) | C (4-32 is C) |  |  |  | CC(=O)NC[C@]1(C)C[C@@H](OC(=O)COc2ccc3c(c2F)B(O)OC3)[C@]2(C)[C@H](C)CC[C@]3(CCC(=O)[C@H]32)[C@@H](C)[C@@H]1O [Compound 48, (3aR,4R,5R,7S,8S,9R,9aS,12R)-7-(acetamidomethyl)-8-hydroxy-4,7,9,12-tetramethyl-3-oxodecahydro-4,9a-propanocyclopenta[8]annulen-5-yl2-((7-fluoro-1-hydroxy-1,3-dihydrobenzo[c][1,2]oxaborol-6-yl)oxy)acetate]
